Assay [1] has as its system TBA (DNA, G4) GGTTGGTGTGGTTGG
The experiment in a line: UV-Vis titration, Scatchard. To be noted: 100 mM KCl; 50 mM Tris-HCl pH 7.4, 25 °C.

Assay [2] relates to dsDNA (DNA, duplex) GGGAGGTTTCGC/GCGAAACCTCCC
The experiment in a line: UV melting, 260 nm. To be noted: 100 mM KCl, 50 mM Tris-HCl pH 7.4, same value in NaCl.

Assay [3] concerns a-core (DNA, G4) AGGGTTAGGGTTAGGGTTAGGG
The experiment in a line: CD melting, 290 nm. To be noted: 50 mM Tris-HCl pH 7.4, 3.0 µM compound, 1.5 µM DNA.

The subject of assay [4] is c-myc (DNA, G4) TGAGGGTGGGGAGGGTGGGGAA
The experiment in a line: UV-Vis titration, Scatchard. To be noted: 100 mM KCl; 50 mM Tris-HCl pH 7.4, 25 °C.

For assay [5], the system named is c-kit (DNA, G4) AGGGAGGGCGCTGGGAGGAGGAGGG
The experiment in a line: UV-Vis titration, Scatchard. Particulars: 100 mM KCl; 50 mM Tris-HCl pH 7.4, 25 °C.

The test system of assay [6] is a-core (DNA, G4) AGGGTTAGGGTTAGGGTTAGGG
The experiment in a line: UV-Vis titration, Scatchard. To be noted: 50 mM Tris-HCl pH 7.4, 25 °C.

For assay [7], the system named is dsDNA (DNA, duplex) GGGAGGTTTCGC/GCGAAACCTCCC
The experiment in a line: UV-Vis titration, Scatchard. To be noted: 100 mM KCl; 50 mM Tris-HCl pH 7.4, 25 °C; 0.60 ± 0.08 in 100 mM NaCl.

In assay [8] the test system is a-coreTT (DNA, G4) AGGGTTAGGGTTAGGGTTAGGGTT
The experiment in a line: UV-Vis titration, Scatchard. To be noted: 100 mM KCl; 50 mM Tris-HCl pH 7.4, 25 °C.

The test system of assay [9] is c-kit (DNA, G4) AGGGAGGGCGCTGGGAGGAGGAGGG
The experiment in a line: CD melting, 262 nm. To be noted: 20 mM KCl; 50 mM Tris-HCl pH 7.4; 3.0 µM compound, 1.5 µM DNA.

Assay [10] has as its system TBA (DNA, G4) GGTTGGTGTGGTTGG
The experiment in a line: CD melting, 290 nm. To be noted: 100 mM KCl; 50 mM Tris-HCl pH 7.4; 3.0 µM compound, 1.5 µM DNA.

Assay [11] deals with c-myc (DNA, G4) TGAGGGTGGGGAGGGTGGGGAA
The experiment in a line: CD melting, 262 nm. Particulars: 5 mM KCl; 50 mM Tris-HCl pH 7.4; 3.0 µM compound, 1.5 µM DNA.

Assay [12] has as its system a-coreTT (DNA, G4) AGGGTTAGGGTTAGGGTTAGGGTT
The experiment in a line: CD melting, 290 nm. To be noted: 100 mM KCl; 50 mM Tris-HCl pH 7.4; 3.0 µM compound, 1.5 µM DNA.

Assay [13] has as its system F21T (DNA, G4) GGGTTAGGGTTAGGGTTAGGG
The experiment in a line: FRET melting. Particulars: 150 mM KCl; 100 mM Tris-HCl pH 7.4; 0.4 µM compound, 0.2 µM F21T.

Structures are written as SMILES.

Consider `CN(C)CCCN1C(=O)c2ccc3c4c(ccc(c24)C1=O)C(=O)N(CCCN(C)C)C3=O`, for which the K was 0.49 ± 0.04 × 10^6 M^-1 in [1]; 1.5 ± 0.2 × 10^6 M^-1 in assay [4]; 0.74 ± 0.05 × 10^6 M^-1 in assay [5]; 1.6 ± 0.2 × 10^6 M^-1 in [6] (100 mM KCl); 0.73 ± 0.09 × 10^6 M^-1 in assay [6] (100 mM NaCl); 0.60 ± 0.04 × 10^6 M^-1 in assay [7]. For the same compound, the K in assay [8] is 1.9 ± 0.3 × 10^6 M^-1. Also, the “∆Tm” value was 12 °C in [2] (2:1 ligand:DNA), 5 °C in assay [3] (100 mM KCl) and 1 °C in assay [3] (100 mM NaCl).

For `CN1CCCNC(=O)c2ccc(cc2)C(=O)NCCCN(C)CCCN2C(=O)c3ccc4c5c(ccc(c35)C2=O)C(=O)N(CCC1)C4=O`, the K in [1] was 3.5 ± 0.2 × 10^6 M^-1; in [4], 4.0 ± 0.3 × 10^6 M^-1; in assay [5] it was 1.9 ± 0.18 × 10^6 M^-1; in assay [6] (100 mM KCl) it was 10 ± 0.5 × 10^6 M^-1; in assay [6] (100 mM NaCl) it was 1.0 ± 0.04 × 10^6 M^-1; in assay [8], 6.1 ± 0.4 × 10^6 M^-1. Further, the “∆Tm” value in assay [2] (2:1 ligand:DNA in table (text: 1-fold)) was 0.3 °C; in assay [9] it was 11 °C; in assay [10], 11 °C; in [3] (100 mM KCl) it was 15 °C; in assay [11], 15 °C; in assay [12] it was 18 °C. The Tm increase in [13] came to 11 °C.

These data come from PMC6272171 (2015).
